Assay results published in US10376518B2, “Methods for the treatment of autoimmune diseases” (UCL Business PLC, priority 2013, dated 2019).

What was measured:
[1] = tested on: FOXP3 expression by CD8+ T cells; assay: CD8+FOXP3+ Treg induction in PBMC cultures, flow cytometry; format: cell-based, human; details: for FOXP3 expression by CD8+ T cells: 24 h
Text: Isolation of cell populations. PBMC were isolated by Ficoll-Paque Plus (GE Healthcare) gradient centrifugation, resuspended to 10^7 cells/ml in FCS (Biosera) and 5% DMSO (Sigma-Aldrich), and frozen until subsequent use. CD8^+ T cells were negatively isolated and monocytes, CD4^+ T cells or B cells were depleted from PBMCs by positive selection with magnetic beads (Miltenyi, Biotec). Monocyte subsets or CD8^+ T cells interacting with monocytes were FACS sorted with the FACSAria (Beckton, Dickinson) based on expression of HLA-DR and CD14 or CD8 respectively.
(§1) Cell Cultures. For CD8^+FoxP3^+ Treg induction, PBMC were cultured with anti-CD3 mAb (OKT3 (e-bioscience), HIT3A (e-bioscience), UCHT1 (e-bioscience), Otelixizumab (GSK)) or anti-CD3 F(Ab)2 (GSK) in RPMI1640, (Sigma-Aldrich), 10% fetal calf serum (Biosera) or human serum type AB (Lonza), 100 U/mg/ml penicillin/streptomycin (Sigma-Aldrich) for 24 h or 5 d. Alternatively, 1 μg/ml of agonist antibodies against CD28 (e-bioscience) or TNFRII (Hycult Biotech) in combination with OKT3 were utilized in PBMC cultures depleted of monocytes. For cytokine neutralization cultures, PBMC were cultured with OKT3 alone or in the presence of an isotype control or 10 μg/ml anti-TNF-α (R&D systems) or anti-IL-1β mAbs (R&D systems), 12.5 μg/ml anti-TGF-β mAb (R&D systems) or 0.1 μg/ml anti-IL-6 mAb (R&D systems). To inhibit monocyte activation of CD8^+ T cells, 10 μg/ml anti-CD80 (R&D systems) or anti-CD86 (R&D systems) were utilized. To convert a non-responder CD8^+ T cell into a responder, whole PBMC were incubated with 10 μg/ml TAPI (Enzo Life Sciences) for 1 h at room temperature, or with 5 μM selective p38 MAPK inhibitor, BIRB 796 (Merck Millipore), for 2 hours at 37° C. before culture with OKT3.
Flow cytometry and soluble cytokine detection. Cell surface staining and intracellular staining were performed using the eBioscience FOXP3 staining buffer set as per manufacturers' instructions. For CD8^+ T cell staining, CD8-FITC and CD4-V450 were used to identify a pure CD8^+ T cell population. CD25-PECy7, TNFRII-APC, CTLA-4-PE, TGFβ-APC were used for characterization. For monocyte and B cells staining, CD14-APC, CD16-PE, HLA-DR-PECy7, CD19-APC were used in combination with membrane TNFα-PE. FOXP3-PE was used to detect intracellular FOXP3. For analysis of human intracellular cytokine production, PBMC were stimulated for 4 h with 50 ng/ml PMA, 250 ng/ml ionomycin (Sigma-Aldrich), and Golgi-Plug (BD, Biosciences) in complete medium. IFN-γ-PECy7, IL-10-APC, IL-2-APC, IL-17-APC, TNF-α-APC and appropriate isotype controls were utilized. For staining of membrane TNF-α versus soluble TNF-α production by monocytes, PBMC were cultured with anti-CD3 mAb alone, or after pre-incubation with TAPI, for 24 h. Supernatants were subsequently removed and replaced with the aforementioned stimulation mix for 4 h. PBMC were then stained for CD14-APC and membrane TNF-α-PE, before intracellular staining for TNF-α-FITC. Data were acquired on an LSRII (Beckton, Dickinson) and analyzed with FlowJo (TreeStar). IL-17 and IFN-γ levels from suppression assay supernatants were measured by mosaic ELISA (R&D Systems) as described by manufacturer's instruction and analyzed by Quansys Q-View™ Software (R&D Systems).

[2] = tested on: membrane TNF-α expression by monocytes; assay: membrane TNF-α staining of monocytes in PBMC, flow cytometry; format: cell-based, human; details: PBMC pre-incubated 1 h at room temperature, 10 μg/ml
Method: as §1, with “To convert a non-responder CD8^+ T cell into a responder, whole PBMC were incubated with 10 μg/ml TAPI (Enzo Life Sciences) for 1 h at room temperature, or with 5 μM selective p38 MAPK inhibitor, BIRB 796 (Merck Millipore), for 2 hours at 37° C. before culture with OKT3.” left out
Flow cytometry and soluble cytokine detection. […] Data were acquired on an LSRII (Beckton, Dickinson) and analyzed with FlowJo (TreeStar). IL-17 and IFN-γ levels from suppression assay supernatants were measured by mosaic ELISA (R&D Systems) as described by manufacturer's instruction and analyzed by Quansys Q-View™ Software (R&D Systems).

[3] = fixed monocytes reintroduced to autologous monocyte-depleted PBMC

## Cc1ccc(-n2nc(C(C)(C)C)cc2NC(=O)Nc2ccc(OCCN3CCOCC3)c3ccccc23)cc1 [BIRB 796]
[1]; RA PBMC pre-incubated 5 μM, 2 h, 37° C., then OKT3 24 h, non-responders
  FOXP3 expression by CD8+ T cells that did not initially respond to CD3-specific stimulation: resulted in FOXP3 expression
[1]; RA PBMC pre-incubated 5 μM, 2 h, 37° C., then OKT3 24 h, responders
  response of CD8+ T cells that could already induce FOXP3 expression: did not alter the response

## F(Ab)2 of Otelixizumab: F(Ab)2 fragment of the anti-CD3 antibody Otelixizumab (GSK)
[1]; [3]
  FOXP3 expression by CD8+ T cells: successfully induced FOXP3 expression

## OKT3: anti-CD3 mAb clone (e-bioscience)
[1]; [3]
  FOXP3 expression by CD8+ T cells: successfully induced FOXP3 expression
[1]; whole RA PBMC, 1 μg/ml
  FOXP3 expression by CD8+ T cells: successfully increased levels of FOXP3 expression

## TAPI
[2]
  expression of membrane TNF-α by monocytes: increased expression of membrane TNF-α by monocytes
[1]; RA PBMC pre-incubated with TAPI, then anti-CD3 mAb 24 h
  maximal induction of CD8+FOXP3+ Treg from prior non-responders: approximately 50%
[1]; healthy PBMC pre-incubated with TAPI, then OKT3 24 h
  induction of CD8+FOXP3+ Treg in healthy individuals: this effect was not observed in healthy individuals
